The test system of assay [1] is Human Microvascular Endothelial Cells. As to the kind of experiment: Endothelial cell migration, inverted modified Boyden chamber. The note with it: 0.01-10 μg/ml. It is filed as cell-based. The procedure: In an alternative in vitro assay for angiogenic activity, an assay for endothelial cell migration was developed. […] Primary Human Microvascular Endothelial Cells (HMVEC PO51, Clonetics, San Diego, Calif.) were maintained in DME with 10% donor calf serum (Flow Laboratories, McLean, Va.) and 100 μg/ml endothelial celi mitogen (Biomedical Technologies Inc., Stoughton, Mass.). The cells were used between passages 10 and 15. To measure migration, cells were starved for 24 hours in DME containing 0.1% BSA, harvested, resuspended in DME with 0.1% BSA, and plated at 1.75×10^4 cells/well on the lower surface of a gelatinized 0.5 μm filter (Nucleopore Corporation, Pleasanton. Calif.) in an inverted modified Boyden chamber. After 1-2 hours at 37° C., during which time the cells were allowed to adhere to the filter, the chamber was reverted to its normal position. […] Chambers were disassembled, membranes fixed and stained, and the number of cells that had migrated to the top of the filter in 3 high-powered fields was determined. […]
To allow comparison of experiments performed on different days, migration data is reported as the percent of maximum migration towards the positive control, calculated after subtraction of background migration observed in the presence of DME plus BSA. […] Detachment was detected by counting cells on the lower face of the membrane. […]

Assay [2] shares this test system. Description: In vitro migration assay for angiogenesis inhibitors. Conditions: bFGF 10 ng/ml; Cyr61; IGF-II. Format: cell-based. On the procedure:
As in the preceding Example, human microvascular endothelial cells (Clonetics) were used. In one series of assays, several carbohydrates and carbohydrate derivatives were analyzed. These compounds included 10 mM mannose, 10 mM mannose-6-phosphate, and 10 mM galactose. […] Cyr61 plus galactose induced the migration of approximately 74 cells per set of three high-powered fields. […] The angiogenic activity of basic FGF (10 ng/ml) was also tested, as described above, with and without mannose-6-phosphate. In the presence of 10 mM mannose-6-phosphate, bFGF induced 51 cells per set of three high-powered fields to migrate; in its absence, bFGF induced the migration of approximately 52 cells. […] The effect of mannose-6-phosphate on IGF II activity was anticipated because mannose-6-phosphate is known to compete with IGF II for their common receptor (the IGF II receptor). […] Moreover, because there is an essentially perfect correlation between the in vitro migration assay and the in vivo angiogenesis assay, described below, mannose-6-phosphate has been identified as an inhibitor of angiogenesis based on the results of the assay disclosed herein. Accordingly, the invention contemplates a method of inhibiting angiogenesis comprising the step of administering an inhibitor the angiogenic activity of Cyr61 such as mannose-6-phosphate. Assays such as that described above may also be used to screen for other inhibitors of angiogenesis which may be useful in the treatment of diseases associated with angiogenesis such as cancer, and diseases of the eye which are accompanied by neovascularization.

Another assay concerns HUVE cells. Description: Thymidine incorporation (mitogen potentiation), HUVE cells. It is filed as cell-based, human. On the procedure:
Human umbilical vein endothelial cells were plated essentially as described above for 3T3 cells and exposed to a constant amount of murine Cyr61; controls received no Cyr61. Different plates were then exposed to different levels of bFGF, comprising a series of bFGF concentrations ranging from 0-10 ng/ml. […] At 1 ng/ml bFGF, however, HUVE cells increased their thymidine incorporation in the presence of bFGF to 6×10^2 cpm; in the presence of 1 ng/ml bFGF and murine Cyr61, HUVE cells incorporated 1.3×10^3 cpm. At 10 ng/ml bFGF, cells exposed to bFGF incorporated about 1.8×10^3 cpm thymidine; cells receiving 10 ng/ml bFGF and Cyr61 incorporated approximately 6.1×10^3 cpm.
The capacity of murine Cyr61 to potentiate the mitogenic activity of bFGF was verified by a thymidine incorporation assay involving HUVE cells and various combinations of bFGF, Cyr61, and anti-Cyr61 antibodies. Cells were plated and grown as described above. The following combinations of supplements (final plate concentrations noted parenthetically) were then pre-incubated for 1 hour before addition to individual plates: 1) pre-immune antiserum (3%); 2) bFGF (15 ng/ml) and pre-immune antiserum (3%); 3) pre-immune antiserum (3%) and Cyr61 (4 μg/ml); 4) pre-immune antiserum (3%), Cyr61 (4 μg/ml), and bFGF (15 ng/ml); 5) anti-Cyr61 antiserum (3%); 6) anti-Cyr61 antiserum and bFGF (15 ng/ml); 7) anti-Cyr61 antiserum (3%) and Cyr61 (4 μg/ml); and 8) anti-Cyr61 antiserum (3%), Cyr61 (4 μg/ml), and bFGF (15 ng/ml).
DNA synthesis for HUVE cells and NIH 3T3 fibroblasts was measured by thymidine incorporation as described previously (Kireeva et al., [1996]) with minor modifications. HUVE cells were grown in 24-well plates to a subconfluent state, serum-starved for 24 hours and treated with F12K medium containing 10% fetal bovine serum (FBS), 1 μCi/ml [^3H]-thymidine and 10 ng/ml basic Fibroblast Growth Factor (bFGF) (Gibco-BRL, Inc.) with various concentrations of Cyr61 and Fisp12 as indicated. […] Thymidine incorporation into the trichloroacetic acid-insoluble fraction was determined after 24 hour incubation. […]
For orientation: Dividing cells build labelled thymidine or BrdU into new DNA.

Take “bFGF: Growth factor used as positive control [reference compound]”: the “migrated cells per three high-powered microscope fields” value in assay [1] turned out to be 92 cells. Further, the “migrating cells, chemoattractant without mannose-6-phosphate” value in assay [2] is “approximately 52 cells”. For the same substance, the “thymidine incorporation, baseline” value in the assay on HUVE cells (0-0.1 ng/ml bFGF, presence or absence of Cyr61, 72 hours) is “approximately 4×10^2 cpm”. In addition, the “thymidine incorporation, bFGF alone” value in the assay with HUVE cells (1 ng/ml bFGF) is given as 6×10^2 cpm; with HUVE cells (10 ng/ml bFGF), “about 1.8×10^3 cpm”.

Source of the values: patent US7521540B2, “CYR61 compositions and methods” (Munin Corporation, priority 1996, dated 2009).
